Assay [1] deals with rat remnant kidney model. The experiment in a line: Efficacy in rat remnant kidney model of nephropathy (renal mass reduction). The assay is classed as in vivo. The note with it: for Mortality Rates in Remnant Kidney Model / Mortality compared to the vehicle treated group: in drinking water; for Mortality Rates in Remnant Kidney Model: started 21 days after RMR, n=12/group; for Mortality compared to the vehicle treated group: Compound 1 30 mg/kg/d, losartan 10 mg/kg; for percentage of sclerotic glomeruli compared with vehicle: renal histology at termination of the experiment; for number of ED 1 positive cells per field (monocytes/macrophages in the renal interstitium): renal histology at termination, not statistically significant vs vehicle (61±5). An excerpt: (§1) The rat remnant kidney model is an animal model of severe progressive renal failure. In this model, a state of severe progressive renal failure is produced by renal mass reduction (RMR) through removal of one kidney and ligation of several branches of the renal artery, resulting in infarction and loss of function of two thirds of the remaining kidney. The procedure creates the conditions of severe hypertension, proteinuria, progressive renal function deterioration, tubulointerstitial damage and glomerulosclerosis (Olson J L, Hostetter T H, Rennke H G, Brenner B M, Venkatachalam M A: “Altered glomerular permselectivity and progressive sclerosis following extreme ablation of renal mass”. Kidney Int 22:112-126, 1982).
Nephropathy is evident as a progressively increasing amount of protein in urine, increases in serum creatinine and increases in arterial pressure. In addition, severe sclerosis of the glomeruli, inflammatory cell infiltration and tubular damage are measurable through histological analysis within 3 months of RMR. These measures form the basis for determining efficacy in the model. Urine protein, serum creatinine and arterial pressure are similarly measured in humans to determine impact of treatments on disease progression.
The aim of this study was to evaluate the effects of Compound 1 compared to an angiotensin receptor blocker (losartan), as well as the combination treatment with Compound 1 and losartan, on proteinuria and renal disease progression in this model. The effectiveness of these agents has been associated with reductions in proteinuria, slowing of the rate of rise in serum creatinine and reduction in glomerular sclerosis and thus slowing of the progression to end stage renal failure.
(§2) Treatment groups (n=12/group) included vehicle; Compound 1 at 30 mg/kg/d; losartan at 10 mg/kg; and losartan at 10 mg/kg+Compound 1 at 30 mg/kg/d. All compounds were administered in drinking water. An additional sham-operated untreated group was also included. Measurements were made at 21 d after RMR but before treatment, and at one and two months of treatment.
At the termination of the experiment kidneys were examined quantitatively for histopathological damage. […] Accumulation of monocytes/macrophages in the renal interstitium was quantified as the number of ED 1 (an antibody to CD68, a monocyte/macrophage specific antigen) positive cells per field.

Assay [2] concerns rat remnant kidney model. The experiment in a line: Blood pressure in rat remnant kidney model. The class given is in vivo. Particulars: 1- and 2-months of treatment.
Excerpt: as §1
Treatments were started 21 days after RMR, when animals already had overt nephropathy. Treatment groups (n=12/group) included vehicle; Compound 1 at 30 mg/kg/d; losartan at 10 mg/kg; and losartan at 10 mg/kg+Compound 1 at 30 mg/kg/d. All compounds were administered in drinking water. An additional sham-operated untreated group was also included. Measurements were made at 21 d after RMR but before treatment, and at one and two months of treatment. Mortality was less in the Compound 1, losartan and Compound 1+ losartan groups compared to the vehicle treated group (Table 1). […]

Another assay concerns remnant kidney model. Kind of assay: Water intake and diuresis in remnant kidney model. The assay is classed as in vivo, rat. Particulars: mean ± S.E.
Excerpt: as §1, §2

Setting [3] is: 2 month of treatment, n = 10, 10 and 11.
The mark [4] stands for this setting: Pre-treatment (21 d after RMR), n = 12.

As for `COc1cc(C(=O)N2CC[C@]3(C=C(C(=O)O)CC3)Cc3ccccc32)ccc1NC(=O)c1cc(F)ccc1Cl` [Compound 1], in the assay on rat remnant kidney model [1] (1 month of treatment), the “Mortality Rates in Remnant Kidney Model” value is given as 12/12. Further, the “Mortality Rates in Remnant Kidney Model” value in the assay on rat remnant kidney model [1] (2 month of treatment) was 2/12. For the same compound, in the assay with rat remnant kidney model [1], the “Mortality compared to the vehicle treated group” value is reported as “less”, the “percentage of sclerotic glomeruli compared with vehicle” value was “tended to decrease” and the “number of ED 1 positive cells per field (monocytes/macrophages in the renal interstitium)” value stood at 45±5 positive cells per field. Further, in the assay with rat remnant kidney model [1] (at 1 and 2 months of treatment), the “serum creatinine compared to the vehicle group” value is recorded as “reduced” and the “urine protein excretion compared to the vehicle group” value is recorded as “reduced”. Moreover, the “arterial pressure compared to vehicle” value in the assay with rat remnant kidney model [2] is “tended to decrease”. In the assay on remnant kidney model (1 month of treatment, n = 12), this compound returned a diuresis of 47 ± 4 mL/24 h and a water intake of 70 ± 8 mL/24 h. In addition, in the assay on remnant kidney model (setting [3]), the diuresis came to 43 ± 5 mL/24 h and the water intake is recorded as 72 ± 10 mL/24 h. In the assay on remnant kidney model (setting [4]), the diuresis was 44 ± 3 mL/24 h and the water intake was found to be 65 ± 2 mL/24 h. Also, in the assay with remnant kidney model (basal, n = 12), the diuresis stood at 19 ± 1 mL/24 h and the water intake stood at 43 ± 2 mL/24 h.

Regarding `CCCCc1nc(Cl)c(CO)n1Cc1ccc(-c2ccccc2-c2nn[nH]n2)cc1` [losartan], the “Mortality Rates in Remnant Kidney Model” value in the assay on rat remnant kidney model [1] (1 month of treatment) is recorded as 12/12. Besides, the “Mortality Rates in Remnant Kidney Model” value in the assay with rat remnant kidney model [1] (2 month of treatment) is listed as 2/12. Also, in the assay with rat remnant kidney model [1], the “Mortality compared to the vehicle treated group” value is “less”, the “percentage of sclerotic glomeruli compared with vehicle” value is given as “significant reduction” and the “number of ED 1 positive cells per field (monocytes/macrophages in the renal interstitium)” value is listed as 38±6 positive cells per field. For the same compound, in the assay on rat remnant kidney model [1] (at 1 and 2 months of treatment), the “serum creatinine compared to the vehicle group” value was “reduced”, the “statistical significance of the effect on urine protein excretion” value is reported as “not statistically significant” and the “urine protein excretion compared to the vehicle group” value is “reduced”. For the same compound, in the assay on rat remnant kidney model [2], the “arterial pressure compared to vehicle” value is listed as “statistically significant decrease”. Also, in the assay with remnant kidney model (1 month of treatment, n = 12), the diuresis was 45 ± 3 mL/24 h and the water intake came to 77 ± 4 mL/24 h. Besides, in the assay with remnant kidney model (setting [3]), the diuresis turned out to be 45 ± 4 mL/24 h and the water intake stood at 76 ± 5 mL/24 h. Further, in the assay with remnant kidney model (setting [4]), the diuresis is 45 ± 3 mL/24 h and the water intake amounted to 68 ± 4 mL/24 h. In the assay with remnant kidney model (basal, n = 12), this compound yielded a diuresis of 20 ± 1 mL/24 h and a water intake of 46 ± 2 mL/24 h.

The record behind these values is patent US20100093701A1, “COMBINATION THERAPY COMPRISING ANGIOTENSIN RECEPTOR BLOCKERS AND VASOPRESSIN RECEPTOR ANTAGONISTS” (priority 2008, published 2010).
